Measured values as given in ChEMBL document CHEMBL1909046, “DrugMatrix in vitro pharmacology data”.

Tests used:
Cytochrome P450 3A4 = Cytochrome P450 3A4 (Homo sapiens, UniProt P08684); settings: bti-tn-5b1-4; further: in other assays of this panel Not Active means under 50% inhibition at 10 µM
Estrogen receptor = target: T1, Estrogen receptor (Homo sapiens, UniProt P03372); settings: sf9; further: in other assays of this panel Not Active means under 50% inhibition at 10 µM
T1 sequence (P03372 whole entry): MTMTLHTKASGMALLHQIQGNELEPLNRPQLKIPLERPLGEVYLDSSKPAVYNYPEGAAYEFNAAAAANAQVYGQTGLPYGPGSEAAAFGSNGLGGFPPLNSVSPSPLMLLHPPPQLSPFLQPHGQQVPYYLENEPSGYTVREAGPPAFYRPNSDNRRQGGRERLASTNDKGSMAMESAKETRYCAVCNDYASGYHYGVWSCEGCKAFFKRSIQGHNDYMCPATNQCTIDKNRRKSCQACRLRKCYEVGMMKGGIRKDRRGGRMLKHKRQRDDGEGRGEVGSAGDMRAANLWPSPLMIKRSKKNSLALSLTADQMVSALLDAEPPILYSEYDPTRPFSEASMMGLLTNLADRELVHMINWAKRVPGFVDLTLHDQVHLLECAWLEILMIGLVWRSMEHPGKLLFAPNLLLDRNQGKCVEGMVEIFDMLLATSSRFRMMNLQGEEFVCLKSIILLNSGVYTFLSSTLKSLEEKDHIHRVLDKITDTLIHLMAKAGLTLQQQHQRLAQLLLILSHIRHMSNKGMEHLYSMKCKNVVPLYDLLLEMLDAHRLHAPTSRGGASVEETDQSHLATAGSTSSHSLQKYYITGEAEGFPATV

[1] = DRUGMATRIX: Glutamate, NMDA, Phencyclidine radioligand binding (ligand: [3H] TCP); format: cell membranes, Rattus norvegicus, Wistar, Cerebral cortex, Membrane; settings: Not Active = under 50% inhibition at 10 µM
[2] = target: T2, C-X-C chemokine receptor type 2 (Homo sapiens, UniProt P25025); format: cell membranes, Membrane; settings: cho-k1; further: in other assays of this panel Not Active means under 50% inhibition at 10 µM
T2 sequence (P25025 whole entry): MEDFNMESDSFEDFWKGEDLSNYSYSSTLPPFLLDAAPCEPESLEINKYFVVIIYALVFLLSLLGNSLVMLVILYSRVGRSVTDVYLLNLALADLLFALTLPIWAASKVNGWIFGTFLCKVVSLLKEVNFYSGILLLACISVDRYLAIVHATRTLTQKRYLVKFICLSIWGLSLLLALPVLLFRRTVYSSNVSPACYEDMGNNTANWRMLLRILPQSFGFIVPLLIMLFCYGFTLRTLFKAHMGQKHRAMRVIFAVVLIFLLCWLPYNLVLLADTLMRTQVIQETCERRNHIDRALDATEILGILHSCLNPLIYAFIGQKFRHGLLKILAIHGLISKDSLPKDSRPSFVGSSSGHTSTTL

Histamine H2 receptor = Histamine H2 receptor (Homo sapiens, UniProt P25021); format: cell membranes, CHO-K1, Membrane; settings: cho-k1; further: in other assays of this panel Not Active means under 50% inhibition at 10 µM
[3] = DRUGMATRIX: Phosphodiesterase PDE3 enzyme inhibition (substrate: [3H]cAMP + cAMP); format: tissue-based, Homo sapiens; settings: platelet, Not Active = under 50% inhibition at 10 µM
Melanocortin receptor 4 = Melanocortin receptor 4 (Homo sapiens, UniProt P32245); format: cell membranes, Membrane; settings: hek293; further: in other assays of this panel Not Active means under 50% inhibition at 10 µM
Adenosine receptor A1 = target: T3, Adenosine receptor A1 (Homo sapiens, UniProt P30542); format: cell membranes, CHO, Membrane; settings: cho
T3 sequence (P30542 whole entry): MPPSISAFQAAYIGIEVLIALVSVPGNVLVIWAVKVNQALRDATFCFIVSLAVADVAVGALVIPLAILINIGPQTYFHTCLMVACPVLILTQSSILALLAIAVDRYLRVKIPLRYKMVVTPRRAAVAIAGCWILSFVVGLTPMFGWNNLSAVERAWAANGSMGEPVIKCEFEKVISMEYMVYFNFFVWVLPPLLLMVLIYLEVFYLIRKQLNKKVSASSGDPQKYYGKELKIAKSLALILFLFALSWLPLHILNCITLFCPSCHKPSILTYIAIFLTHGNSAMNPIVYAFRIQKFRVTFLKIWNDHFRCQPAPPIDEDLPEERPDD

[4] = target: 5-hydroxytryptamine receptor 1B (Rattus norvegicus, UniProt P28564); format: cell membranes, Wistar, Cerebral cortex, Membrane; further: in other assays of this panel Not Active means under 50% inhibition at 10 µM
D(3) dopamine receptor = D(3) dopamine receptor (Homo sapiens, UniProt P35462); assay: DRUGMATRIX: Dopamine D3 radioligand binding (ligand: [3H] Spiperone); format: cell membranes, CHO, Membrane
[5] = DRUGMATRIX: GABAA, Chloride Channel, TBOB radioligand binding (ligand: [3H] TBOB); format: cell membranes, Rattus norvegicus, Wistar, Cerebral cortex, Membrane; settings: Not Active = under 50% inhibition at 10 µM
[6] = DRUGMATRIX: Imidazoline I2, Central radioligand binding (ligand: [3H] Idazoxan); format: cell membranes, Rattus norvegicus, Wistar, Cerebral cortex, Membrane; settings: Not Active = under 50% inhibition at 10 µM
[7] = DRUGMATRIX: Platelet-Derived Growth Factor (PDGF) radioligand binding (ligand: [125I] PDGF); format: cell-based; settings: nih3t3; Not Active = under 50% inhibition at 10 µM
[8] = target: T4, Neuropeptide Y receptor type 2 (Homo sapiens, UniProt P49146); format: cell membranes, Membrane; settings: kan-ts; further: in other assays of this panel Not Active means under 50% inhibition at 10 µM
T4 sequence (P49146 whole entry): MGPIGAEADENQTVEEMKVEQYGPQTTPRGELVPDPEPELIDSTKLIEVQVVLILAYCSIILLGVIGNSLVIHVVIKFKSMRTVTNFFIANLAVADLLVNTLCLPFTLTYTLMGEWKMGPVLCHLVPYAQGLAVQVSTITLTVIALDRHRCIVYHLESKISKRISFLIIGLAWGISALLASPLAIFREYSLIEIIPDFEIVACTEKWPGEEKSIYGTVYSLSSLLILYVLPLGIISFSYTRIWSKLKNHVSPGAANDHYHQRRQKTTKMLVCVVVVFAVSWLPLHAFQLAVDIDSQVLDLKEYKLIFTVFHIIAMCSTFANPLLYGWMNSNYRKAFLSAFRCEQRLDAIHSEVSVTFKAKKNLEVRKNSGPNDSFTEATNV

[9] = target: Aldo-keto reductase family 1 member B1 (Rattus norvegicus, UniProt P07943); format: tissue-based, Lens of camera-type eye
[10] = DRUGMATRIX: Glutamate, NMDA, Agonism radioligand binding (ligand: [3H] CGP-39653); format: cell membranes, Rattus norvegicus, Wistar, Cerebral cortex, Membrane; settings: Not Active = under 50% inhibition at 10 µM
Substance-P receptor = Substance-P receptor (Homo sapiens, UniProt P25103); format: cell membranes, CHO, Membrane; settings: cho; further: in other assays of this panel Not Active means under 50% inhibition at 10 µM
Sequence of Substance-P receptor (P25103 whole entry): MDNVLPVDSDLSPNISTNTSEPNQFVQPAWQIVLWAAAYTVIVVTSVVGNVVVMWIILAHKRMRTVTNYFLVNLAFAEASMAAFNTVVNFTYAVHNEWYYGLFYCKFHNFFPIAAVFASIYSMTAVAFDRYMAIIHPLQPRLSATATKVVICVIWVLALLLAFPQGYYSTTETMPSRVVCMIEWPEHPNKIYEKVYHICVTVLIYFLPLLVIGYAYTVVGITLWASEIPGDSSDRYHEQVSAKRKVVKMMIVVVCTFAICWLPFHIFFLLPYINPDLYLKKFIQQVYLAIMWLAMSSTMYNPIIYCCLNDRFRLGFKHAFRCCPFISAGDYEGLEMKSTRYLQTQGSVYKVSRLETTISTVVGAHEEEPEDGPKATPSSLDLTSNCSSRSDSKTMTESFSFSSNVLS

Sequence of Melanocortin receptor 4 (P32245 whole entry): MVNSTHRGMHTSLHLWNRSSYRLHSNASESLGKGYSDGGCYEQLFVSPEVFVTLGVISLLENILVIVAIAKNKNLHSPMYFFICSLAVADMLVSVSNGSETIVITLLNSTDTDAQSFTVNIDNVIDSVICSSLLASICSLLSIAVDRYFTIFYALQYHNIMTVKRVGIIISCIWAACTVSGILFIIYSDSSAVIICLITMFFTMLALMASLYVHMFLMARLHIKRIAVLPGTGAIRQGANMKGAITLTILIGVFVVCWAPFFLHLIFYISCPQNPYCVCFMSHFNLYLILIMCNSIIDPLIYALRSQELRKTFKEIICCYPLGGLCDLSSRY
Sequence of Histamine H2 receptor (P25021 whole entry): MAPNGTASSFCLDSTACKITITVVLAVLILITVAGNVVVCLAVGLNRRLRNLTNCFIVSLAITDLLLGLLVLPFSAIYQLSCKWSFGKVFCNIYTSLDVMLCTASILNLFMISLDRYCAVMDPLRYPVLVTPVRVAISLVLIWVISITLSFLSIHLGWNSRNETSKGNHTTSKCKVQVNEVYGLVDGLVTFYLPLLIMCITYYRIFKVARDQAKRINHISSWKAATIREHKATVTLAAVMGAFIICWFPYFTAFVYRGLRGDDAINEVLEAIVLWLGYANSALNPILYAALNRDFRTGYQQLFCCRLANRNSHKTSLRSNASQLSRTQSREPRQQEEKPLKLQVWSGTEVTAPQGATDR
Sequence of D(3) dopamine receptor (P35462 whole entry): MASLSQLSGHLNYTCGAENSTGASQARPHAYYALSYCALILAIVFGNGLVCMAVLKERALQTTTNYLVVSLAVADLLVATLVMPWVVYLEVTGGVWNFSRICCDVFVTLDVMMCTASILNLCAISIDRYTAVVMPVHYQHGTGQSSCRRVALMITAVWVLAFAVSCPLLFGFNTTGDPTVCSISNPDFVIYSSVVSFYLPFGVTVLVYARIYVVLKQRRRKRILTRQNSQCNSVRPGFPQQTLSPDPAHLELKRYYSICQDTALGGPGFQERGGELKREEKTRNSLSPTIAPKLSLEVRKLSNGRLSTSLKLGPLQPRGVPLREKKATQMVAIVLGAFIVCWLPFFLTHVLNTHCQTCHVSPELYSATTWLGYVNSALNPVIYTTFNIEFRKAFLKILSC
Sequence of Cytochrome P450 3A4 (P08684 whole entry): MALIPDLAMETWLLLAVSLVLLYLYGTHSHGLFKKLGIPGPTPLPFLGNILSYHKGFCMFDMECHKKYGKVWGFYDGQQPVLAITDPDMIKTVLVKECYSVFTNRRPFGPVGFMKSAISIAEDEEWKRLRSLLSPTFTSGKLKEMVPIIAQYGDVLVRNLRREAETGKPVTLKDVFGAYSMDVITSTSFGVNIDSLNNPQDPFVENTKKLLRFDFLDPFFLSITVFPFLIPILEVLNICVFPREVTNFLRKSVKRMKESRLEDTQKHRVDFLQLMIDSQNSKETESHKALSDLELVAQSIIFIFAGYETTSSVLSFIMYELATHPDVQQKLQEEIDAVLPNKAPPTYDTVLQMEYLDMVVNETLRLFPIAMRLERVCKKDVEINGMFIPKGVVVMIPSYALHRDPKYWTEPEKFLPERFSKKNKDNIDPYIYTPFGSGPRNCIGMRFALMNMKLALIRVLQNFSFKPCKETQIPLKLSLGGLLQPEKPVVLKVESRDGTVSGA
Sequence of 5-hydroxytryptamine receptor 1B (P28564 whole entry): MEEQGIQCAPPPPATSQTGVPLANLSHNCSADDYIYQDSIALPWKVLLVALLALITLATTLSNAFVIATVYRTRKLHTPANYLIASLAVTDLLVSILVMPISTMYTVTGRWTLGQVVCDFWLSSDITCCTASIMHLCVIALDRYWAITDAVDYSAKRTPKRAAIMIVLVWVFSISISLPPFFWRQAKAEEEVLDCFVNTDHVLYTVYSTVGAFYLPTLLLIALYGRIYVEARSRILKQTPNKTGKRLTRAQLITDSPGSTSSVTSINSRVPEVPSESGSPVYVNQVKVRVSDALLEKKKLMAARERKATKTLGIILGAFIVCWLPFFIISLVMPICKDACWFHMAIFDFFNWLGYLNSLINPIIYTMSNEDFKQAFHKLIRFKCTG

| SMILES | IC50 (Cytochrome P450 3A4) | Ki (Cytochrome P450 3A4) | IC50 (Estrogen receptor) | IC50 [1] | Ki [1] | IC50 [2] | IC50 (Histamine H2 receptor) | IC50 (Melanocortin receptor 4) | IC50 (Adenosine receptor A1) | IC50 [4] | IC50 [5] | Ki [5] | IC50 [6] | Ki [6] | IC50 [7] | Ki [7] | IC50 [8] | IC50 [9] | IC50 [10] | Ki [10] | also measured |
| --- | --- | --- | --- | --- | --- | --- | --- | --- | --- | --- | --- | --- | --- | --- | --- | --- | --- | --- | --- | --- | --- |
| Oc1c(Cl)cc(Cl)cc1Sc1cc(Cl)cc(Cl)c1O [BITHIONOL] | Not Active | Not Active | Not Active | Not Active | Not Active | Not Active | Not Active | Not Active | Not Active | Not Active | Not Active | Not Active | Not Active | Not Active | Not Active | Not Active | Not Active | Not Active | Not Active | Not Active | IC50 ([3]; read-out: IC50): 2.72 µM; IC50 (D(3) dopamine receptor; read-out: IC50): 4.22 µM; Ki (D(3) dopamine receptor; read-out: Ki): 1.43 µM; IC50 (Substance-P receptor): Not Active |
| Cc1c(-c2ccccc2)oc2c(C(=O)OCCN3CCCCC3)cccc2c1=O [FLAVOXATE] | Not Active | Not Active | Not Active | Not Active | Not Active | Not Active | Not Active | Not Active | Not Active | Not Active | Not Active | Not Active | Not Active | Not Active | Not Active | Not Active | Not Active | Not Active | Not Active | Not Active | IC50 [3]: Not Active; Ki [3]: Not Active; IC50 (D(3) dopamine receptor; cho): Not Active; IC50 (Substance-P receptor): Not Active |
| NCC[C@H](O)C(=O)N[C@@H]1C[C@H](N)[C@@H](O[C@H]2O[C@H](CN)[C@@H](O)[C@H](O)[C@H]2O)[C@H](O)[C@H]1O[C@H]1O[C@H](CO)[C@@H](O)[C@H](N)[C@H]1O [AMIKACIN] | Not Active | Not Active | Not Active | Not Active | Not Active | Not Active | Not Active | Not Active | Not Active | Not Active | Not Active | Not Active | Not Active | Not Active | Not Active | Not Active | Not Active | Not Active | Not Active | Not Active | IC50 [3]: Not Active; Ki [3]: Not Active; IC50 (D(3) dopamine receptor; cho): Not Active; IC50 (Substance-P receptor): Not Active |
| CC(C)(Oc1ccc(CCNC(=O)c2ccc(Cl)cc2)cc1)C(=O)O [BEZAFIBRATE] | Not Active | Not Active | Not Active | Not Active | Not Active | Not Active | Not Active | Not Active | Not Active | Not Active | Not Active | Not Active | Not Active | Not Active | Not Active | Not Active | Not Active | Not Active | Not Active | Not Active | IC50 [3]: Not Active; Ki [3]: Not Active; IC50 (D(3) dopamine receptor; cho): Not Active; IC50 (Substance-P receptor): Not Active |
| C=C1C(=O)O[C@@H]2C3O[C@]3(C)CC/C=C(\C)CC[C@@H]12 (stereo partly drawn) | Not Active | Not Active | Not Active | Not Active | Not Active | Not Active | Not Active | Not Active | Not Active | Not Active | Not Active | Not Active | Not Active | Not Active | Not Active | Not Active | Not Active | Not Active | Not Active | Not Active | IC50 [3]: Not Active; Ki [3]: Not Active; IC50 (D(3) dopamine receptor; cho): Not Active; IC50 (Substance-P receptor): Not Active |
| CN1C(C(=O)Nc2ccccn2)=C(O)c2ccccc2S1(=O)=O [PIROXICAM] | Not Active | Not Active | Not Active | Not Active | Not Active | Not Active | Not Active | Not Active | Not Active | Not Active | Not Active | Not Active | Not Active | Not Active | Not Active | Not Active | Not Active | Not Active | Not Active | Not Active | IC50 [3]: Not Active; Ki [3]: Not Active; IC50 (D(3) dopamine receptor; cho): Not Active; IC50 (Substance-P receptor): Not Active |
| OCc1ccccc1 [BENZYL ALCOHOL] | Not Active | Not Active | Not Active | Not Active | Not Active | Not Active | Not Active | Not Active | Not Active | Not Active | Not Active | Not Active | Not Active | Not Active | Not Active | Not Active | Not Active | Not Active | Not Active | Not Active | IC50 [3]: Not Active; Ki [3]: Not Active; IC50 (D(3) dopamine receptor; cho): Not Active; IC50 (Substance-P receptor): Not Active |
